According to patent publication US9586946B2, “Selective immunoproteasome inhibitors with non-peptide scaffolds” (University of Kentucky Research Foundation, priority 2015, dated 2017):
Where a SMILES comes first, the peptide text is derived from it.

Columns and labels:
[1] = molecular target: T1, 20S human constitutive proteasome (CT-L activity) (Homo sapiens, UniProt P28074); test: Inhibition of CT-L activity of the constitutive proteasome (Suc-LLVY-AMC fluorogenic substrate); assay type: biochemical; conditions: inhibitor at 5 μM; remaining enzyme activity; read-out: % CP activity (remaining activity of the enzyme)
T1 construct: purchased Boston Biochem
Procedure: (§1) The computationally selected 13 compounds were tested for their inhibitory activity against the CT-L activity of the immunoproteasome. The identified active compounds were also tested for their inhibitory activity against the CT-L activity of the constitutive proteasome. For the initial activity screening, the selected compounds were dissolved in DMSO and used at a concentration of 5 μM. Epoxomicin ([…]), which reached the 100% inhibition, was used as a positive control. 20S human immunoproteasome and constitutive proteasome (Boston Biochem) were 2-fold diluted in an assay buffer (20 mM Tris/Cl, pH 8.0, 0.5 mM EDTA, 0.035% SDS).^17
(§2) Specifically, selected compounds were preincubated with 50 ng/well of the immunoproteasome or constitutive proteasome in a 96-well plate at room temperature for 13 min. 100 μM of Suc-LLVY-AMC, a fluorogenic peptide substrate for the CT-L activity, was then added to the wells. Fluorogenic signals of the free AMC (Ex: 360, Em: 460)^18 were recorded for 90 min. The initial reaction velocities (RFU/min) of each compound were calculated as a percentage of the positive control. All enzyme activity assays were carried out in triplicate.

[2] = molecular target: T2, 20S human immunoproteasome (CT-L activity) (Homo sapiens, UniProt P28062); test: Inhibition of CT-L activity of the immunoproteasome (Suc-LLVY-AMC fluorogenic substrate); assay type: biochemical; conditions: for remaining activity at 5 µM: inhibitor at 5 μM, remaining enzyme activity, read-out: % IP activity (remaining activity of the enzyme); for inhibition of the CT-L activity of the immunoproteasome: 5 µM; for IC50: unit inferred, read-out: IC50 values against the immunoproteasome
T2 construct: purchased Boston Biochem
Procedure: as §1, §2

SMILES	remaining activity at 5 µM [1]	remaining activity at 5 µM [2]	inhibition of the CT-L activity of the immunoproteasome ([2]; compound at 5 μM, % inhibition)	IC50 [2]	inhibition by positive control ([2]; Epoxomicin at 1 tM (so in the source), positive control)	inhibition at 5 µM ([2]; compound at 5 μM, % inhibition)
CCOc1ccc2[nH]c3c(c2c1)CC(C(=O)NCC1CCCCC1)N[C@@H]3c1ccc(O)c([N+](=O)[O-])c1 (stereo partly drawn) [Compound 8]	106%	90%	–	–	–	–
N=C(N)NCCC[C@@H]1NC(=O)[C@H](Cc2ccccc2)NC(=O)[C@@H](Cc2ccc(O)cc2)NC(=O)CNC(=O)[C@@H](Cc2c[nH]c3ccccc23)NC1=O [Compound 5] (HELM PEPTIDE1{F.R.[dW].G.[dY]}$PEPTIDE1,PEPTIDE1,1:R1-5:R2$$$V2.0)	82%	81%	–	–	–	–
CCN(CC)CCNC(=O)[C@H](Cc1ccc(OCc2ccccc2)cc1)NC(=O)CCC(=O)c1ccccc1 [Compound 14]	76%	70%	–	–	–	–
Cc1ccc(CSC[C@@H](NC(=O)c2cc(-c3ccccc3)nc3ccccc23)C(=O)NCCCN2CCCC2=O)cc1 [Compound 3]	85%	38%	62%	4.9 µM	–	–
C=C(CCCc1ccccc1)N[C@@H](Cc1ccc(Cl)cc1)C(=O)N[C@H](Cc1ccccc1)C(=O)N[C@H](CCCNC(=N)N)C(=O)N[C@@H](Cc1c[nH]c2ccccc12)C(N)=O [Compound 17]	41%	42%	–	–	–	–
Cc1ccc(OS(=O)(=O)c2cccc(C(F)(F)F)c2)c(-c2cc(-c3ccccc3)n(CCN[C@@H]3CCNC3)n2)c1 [Compound 16]	50%	42%	–	–	–	–
COc1ccccc1C(=O)N/C(=C/c1ccc(Br)cc1)C(=O)Nc1ccc(S(=O)(=O)/N=c2\[nH]ccs2)cc1 [Compound 13]	88%	91%	–	–	–	–
Cc1ccc(-c2cc(C(=O)NC[C@@H]3CCCO3)c3cc(CNS(=O)(=O)c4cccc(Cl)c4)ccc3n2)o1 [Compound 1]	80%	15%	85%	1.7 µM	–	–
O=C1CN(/N=C/c2ccc(-c3ccc(Cl)cc3)o2)C(=O)N1CCCCN1CCN(C[C@@H](O)c2ccccc2)CC1 [Compound 18]	84%	75%	–	–	–	–
CC[C@H](C)[C@H](NC(=O)[C@H]([C@@H](C)CC)N(C)C(C)=O)C(=O)N[C@H](C(=O)N[C@@H](CC(C)C)C(=O)[C@@]1(C)CO1)[C@@H](C)O [Epoxomicin, reference compound]	–	–	–	–	100%	–
NC(=O)CC[C@H](NC(=O)[C@H](Cc1cnc[nH]1)NC(=O)OCC1c2ccccc2-c2ccccc21)C(=O)N1CCC[C@H]1C(=O)O [Compound 7] (HELM PEPTIDE1{[O=C(OCC1c2ccccc2-c2ccccc21)[*:2]].H.Q.P}$$$$V2.0)	76%	65%	–	–	–	–
CCCCc1ccc2nc(-c3ccc(OC)cc3)cc(C(=O)NC[C@@H](C)C(=O)N3CCC[C@@H]3CO)c2c1 [Compound 4]	98%	79%	–	–	–	–
CC[C@H](C(=O)C(=O)NCCCN1CCOCC1)N1CC(C)C[C@@H](NC(=O)OCc2ccccc2)C1=O (stereo partly drawn) [Compound 6]	94%	86%	–	–	–	–
COc1ccc(-c2cc(C(=O)N[C@H](CCC(=O)OC3CCCCC3)C(=O)NCCc3ccncc3)c3ccccc3n2)cc1C [Compound 11]	80%	80%	–	–	–	–
Cc1cccc(Nc2ccccc2C(=O)N[C@H](CC[S@+](C)[O-])C(=O)N[C@H](C)c2ccc(F)cc2)c1C [Compound 19]	67%	69%	–	–	–	–
O=C(C[C@@H]1CCN(CC2CC2)C[C@@H]1[C@H]1CC(c2ccccc2Cl)=NO1)NCCc1ccccn1 [Compound 9]	86%	87%	–	–	–	–
CC[C@@H](O)CNC(=O)C[C@@H]1CCN(Cc2ccc(C)s2)C[C@@H]1[C@H]1CC(c2ccccc2OC)=NO1 [Compound 12]	72%	69%	–	–	–	–
CCN1CCN(CCCN2C(=O)C3[C@H](C(=O)Nc4cc(C)cc(C)c4)[C@@H]4C=C[C@]3(O4)[C@H]2C(=O)N[C@@H]2CCC[C@H](C)[C@H]2C)CC1 (stereo partly drawn) [Compound 10]	85%	82%	–	–	–	–
O=C(CC[C@H](NC(=O)c1cc(-c2ccoc2)nc2ccccc12)C(=O)NCc1cc(F)ccc1F)OC1CCCCC1 [Compound 15]	80%	74%	–	–	–	–
CCC[C@H]1C[C@H](C(=O)N[C@@H]([C@@H]2O[C@H](SC)[C@@H](O)[C@@H](O)[C@@H]2O)[C@@H](C)O)[N@@H+](C)C1 [Compound 2]	98%	64%	–	22 µM	–	36 to 85%
